The values that follow come from patent publication US7534436B2, “Peptide fragments of the harp factor inhibiting angiogenesis” (Centre National de la Recherche Scientifique (C.N.R.S.), priority 2002, dated 2009).

Test [1] has as its system endothelial cells which have invaded the Matrigel. As to the kind of experiment: In vivo Matrigel angiogenesis model, substance used alone. The note with it: day 7; for effect on angiogenesis when peptide used alone: peptide 1 μM alone in Matrigel; for increase in the number of endothelial cells by comparison with Matrigel used by itself: HARP 5 nM or FGF-2 10 nM in Matrigel. More on the design: species or system Swiss mice. The protocol: (§1) FIG. 6 represents the inhibition by the HARP peptides 13-39 and 65-97 of the angiogenesis induced by HARP in an in vivo model. Three hundred microlitres of Matrigel® incubated with 5 nM of HARP in the presence or absence of the HARP peptides 13-39 and 65-97 used at a concentration of 1 μM are injected subcutaneously into a mouse. The control of the experiment is achieved using FGF-2. Seven days later the mice are sacrificed and the Matrigel® is removed. Sections having a thickness of 8 μM are produced. The sections are then stained with Trichrome from Gomori. The number of cells which have invaded the Matrigel® is quantified by image analysis with NIH software. The results represent the mean value of an analysis of 7 sections per mouse (n=4 mice/group). The bars represent the standard margins for error (**, p<0.01).
This experiment was carried out using an in vivo angiogenesis model in mice. This experimental model consists in injecting Matrigel® containing a substance to be analysed for its angiogenesis stimulating or inhibiting properties. Four Swiss mice (Janvier, Genest St Isle, France) per group are injected with 300 μl of Matrigel® previously incubated with either 5 nM of HARP, 1 μM of HARP peptide 13-39 or 65-97, or with a mixture of HARP (5 nM) and HARP peptides 13-39 or 65-97 (1 μM). The control of the specificity of the inhibition is carried out using another angiogenic factor, FGF-2, tested either by itself at a concentration of 10 nM or supplemented by the HARP peptides 13-39 or 65-97 used at a concentration of 1 μM.
The mice are sacrificed seven days after the injection of the Matrigel®. This latter is removed and frozen in liquid nitrogen. Sections 8 μM thick are then effected with a cryostat. The sections are then stained with Trichrome from Gomori. The number of endothelial cells which have invaded the Matrigel® is quantified by image analysis using NIH imaging software.

The test system of test [2] is angiogenesis induced by FGF-2. Put plainly: In vivo Matrigel angiogenesis model, angiogenesis induced by FGF-2 (specificity control). Set-up: species or system Swiss mice. The note with it: peptide 1 μM with FGF-2 10 nM in Matrigel; day 7. The protocol: as §1
(§2) This experiment was carried out using an in vivo angiogenesis model in mice. This experimental model consists in injecting Matrigel® containing a substance to be analysed for its angiogenesis stimulating or inhibiting properties. […]
(§3) The mice are sacrificed seven days after the injection of the Matrigel®. […] The number of endothelial cells which have invaded the Matrigel® is quantified by image analysis using NIH imaging software.

The subject of test [3] is angiogenesis induced by HARP. Put plainly: In vivo Matrigel angiogenesis model, angiogenesis induced by HARP. The note with it: peptide 1 μM with HARP 5 nM in Matrigel, subcutaneous; day 7. Set-up: species or system Swiss mice. The protocol:
as §1, §2, §3

The test system of test [4] is NIH 3T3 cells stimulated by HARP. The note with it: 24 h, 10 μM.
Experimental: After 24 hours' incubation the cellular proliferation is estimated by measurement of the tritiated thymidine incorporated by the cells.
Fibroblast cells of type NIH 3T3 are cultured at a density of 3×10^4 cells per cm^2 in DMEM culture medium supplemented with 10% of foetal calf serum. […] After this period of incubation, 0.5 μCi of [methyl-^3H]thymidine is added and 6 hours afterwards the cells are fixed by a 10% solution of trichloroacetic acid. The radioactivity incorporated by the cells is then counted by liquid scintillation after having effected a cell lysis with a solution of sodium hydroxide at a concentration of 0.1 N.
Test [5] has as its system endothelial cells in the tumour (PC3). As to the kind of experiment: Tumour angiogenesis in PC3 tumours of nude mice (isolectin B4 staining of endothelial cells, image analysis). The format is in vivo. As to conditions: day 27; 5 mg/kg daily injection in the region of the tumour. The protocol: Two million PC3 cells are injected into groups of mice treated or not by daily injection in the region of the tumour with PBS (control) or with the peptide 111-136 at a concentration of 5 mg/kg. The mice are sacrificed on day 27. The quantification of the angiogenesis is effected on a section after immunohistological analysis using isolectine Bandeiraea Simplicifolia as a specific marker of the endothelial cells and image analysis. The values presented in the histogram represent the mean value obtained by analysing three independent sections resulting from each of six tumours obtained in each condition.
On day 27, the tumours are removed and freezing sections of 5 μm are produced. […] This lectin is then detected by immunomarking with the aid of a sandwich of specific antibodies marked with alkaline phosphatase. After incubation with a substrate of alkaline phosphatase (Vector Red substrate), the endothelial cells are stained red. The quantification of the number of endothelial cells in the tumour is carried out by image analysis (NIH image) by analysing the 6 tumours on 3 independent sections of one and the same tumour.

For test [6] the following is noted: Bernard-Pierrot et al 2002; cited from earlier work.
Test [7] has as its system PC3 cells (line resulting from prostate cancer). As to the kind of experiment: Tumour growth after injection of PC3 cells into nude mice. It counts as in vivo. The note with it: 5 mg/kg daily injection in the region of the tumour. The protocol:
Two million PC3 cells are injected into groups of 5 nude mice treated or not by daily injection in the region of the tumour with PBS (control) or with the HARP peptide 111-136 at a concentration of 5 mg/kg. The tumour growth for each group of animals is evaluated by measurement of the size of the tumour on day 9, 13, 16, 20, 23 and 27.
The capacity of the peptide P111-136 (SEQ ID NO: 4) to inhibit tumour angiogenesis has been tested by inducing tumour growth by injection of PC3 cells into nude mice in the presence or absence of peptide P111-136. 2×10^6 PC3 cells are injected into groups of 5 nude mice (nude/nude, Laboratoire IFFA CREDO) treated or not by injection in the region of the tumour of 100 μl per day of a solution of PBS (control group) or by a solution of peptide P111-136 diluted in PBS at a concentration of 5 mg/kg. On day 9, 13, 16, 20, 23 and 27 the size of the tumour is measured with the aid of a calliper gauge. The results are presented in FIG. 3 and indicate that the HARP peptide 111-136 used at a dose of 5 mg per kg induces an inhibition of the growth of the tumours.

Test [8] has as its target anaplastic lymphoma kinase (ALK) (Homo sapiens, UniProt Q9UM73). The note with it: high affinity tyrosine kinase receptor; Stoica et al, 2001; cited from earlier work.

Where a SMILES comes first, the peptide text is derived from it.

Sequence of anaplastic lymphoma kinase (ALK) (Q9UM73 19-1620, species assumed): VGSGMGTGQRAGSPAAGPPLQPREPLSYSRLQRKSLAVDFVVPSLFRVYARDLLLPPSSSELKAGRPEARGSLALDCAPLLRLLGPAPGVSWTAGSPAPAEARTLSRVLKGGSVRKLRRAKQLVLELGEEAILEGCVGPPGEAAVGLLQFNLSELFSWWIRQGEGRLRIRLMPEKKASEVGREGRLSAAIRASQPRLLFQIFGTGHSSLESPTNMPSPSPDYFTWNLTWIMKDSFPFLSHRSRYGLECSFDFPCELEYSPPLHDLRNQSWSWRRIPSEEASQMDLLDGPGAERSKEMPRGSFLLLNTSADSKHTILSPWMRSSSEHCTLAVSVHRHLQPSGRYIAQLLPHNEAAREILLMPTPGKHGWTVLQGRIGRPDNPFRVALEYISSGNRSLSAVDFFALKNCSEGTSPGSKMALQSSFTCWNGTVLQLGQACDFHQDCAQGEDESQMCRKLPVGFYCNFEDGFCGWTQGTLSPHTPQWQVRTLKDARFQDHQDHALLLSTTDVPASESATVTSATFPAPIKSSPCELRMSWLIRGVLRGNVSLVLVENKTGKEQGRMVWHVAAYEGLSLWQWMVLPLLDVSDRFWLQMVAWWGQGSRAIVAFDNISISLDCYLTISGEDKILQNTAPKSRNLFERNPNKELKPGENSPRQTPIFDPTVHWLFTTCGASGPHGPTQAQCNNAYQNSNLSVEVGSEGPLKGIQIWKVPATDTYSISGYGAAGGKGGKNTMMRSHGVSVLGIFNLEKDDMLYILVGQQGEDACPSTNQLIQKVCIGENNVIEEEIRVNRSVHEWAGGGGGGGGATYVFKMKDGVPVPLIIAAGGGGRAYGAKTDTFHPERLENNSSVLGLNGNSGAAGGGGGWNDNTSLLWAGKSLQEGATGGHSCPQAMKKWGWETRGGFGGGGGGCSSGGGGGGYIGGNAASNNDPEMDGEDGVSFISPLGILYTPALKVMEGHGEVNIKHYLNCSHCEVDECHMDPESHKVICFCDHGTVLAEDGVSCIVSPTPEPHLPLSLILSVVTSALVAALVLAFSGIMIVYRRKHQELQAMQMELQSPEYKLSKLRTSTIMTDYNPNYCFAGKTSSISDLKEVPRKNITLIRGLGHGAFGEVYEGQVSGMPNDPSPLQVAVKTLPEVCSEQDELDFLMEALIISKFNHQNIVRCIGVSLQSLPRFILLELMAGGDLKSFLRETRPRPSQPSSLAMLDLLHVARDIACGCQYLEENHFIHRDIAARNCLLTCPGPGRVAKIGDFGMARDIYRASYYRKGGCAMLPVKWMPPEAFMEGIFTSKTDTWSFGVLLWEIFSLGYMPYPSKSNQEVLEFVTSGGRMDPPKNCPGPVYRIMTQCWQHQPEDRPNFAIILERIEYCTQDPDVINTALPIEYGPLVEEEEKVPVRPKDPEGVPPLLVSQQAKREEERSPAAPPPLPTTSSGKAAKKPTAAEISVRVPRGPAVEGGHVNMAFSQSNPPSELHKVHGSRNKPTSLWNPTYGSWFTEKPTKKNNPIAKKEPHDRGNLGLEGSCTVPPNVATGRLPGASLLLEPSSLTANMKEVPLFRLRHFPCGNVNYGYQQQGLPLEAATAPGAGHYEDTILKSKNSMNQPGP

For the molecule `CC(C)C[C@H](NC(=O)[C@H](C)NC(=O)[C@H](CCCNC(=N)N)NC(=O)[C@H](CCCCN)NC(=O)[C@H](CC(C)C)NC(=O)[C@H](CO)NC(=O)CNC(=O)[C@@H](NC(=O)[C@H](CCCNC(=N)N)NC(=O)[C@@H](NC(=O)[C@H](CCCCN)NC(=O)[C@H](CC(C)C)NC(=O)[C@H](C)NC(=O)[C@@H](NC(=O)[C@H](CC(N)=O)NC(=O)[C@H](CC(C)C)NC(=O)[C@H](CC(=O)O)NC(=O)[C@H](CS)NC(=O)[C@H](CCC(=O)O)NC(=O)CNC(=O)[C@H](Cc1c[nH]c2ccccc12)NC(=O)[C@H](C)NC(=O)[C@H](CCC(N)=O)NC(=O)[C@H](Cc1ccccc1)NC(=O)[C@H](CCC(N)=O)NC(=O)[C@H](Cc1ccc(O)cc1)NC(=O)[C@H](CCCCN)NC(=O)[C@H](CS)NC(=O)[C@H](CCC(=O)O)NC(=O)[C@H](C)N)[C@@H](C)O)[C@@H](C)O)[C@@H](C)O)C(=O)N[C@@H](Cc1c[nH]cn1)C(=O)N[C@@H](CC(N)=O)C(=O)N[C@@H](C)C(=O)O` [peptide 65-97] (H-AECKYQFQAWGECDLNTALKTRTGSLKRALHNA-OH; N-terminus and C-terminus assumed), the “effect on angiogenesis when peptide used alone” value in test [1] is on record as “No significant effect”. For the same molecule, in test [2], the “effect on angiogenesis induced by FGF-2” value is on record as “no effect”. Also, in test [3], the “effect on angiogenesis induced by HARP” value is “totally inhibit”.
For the molecule `CC(C)C[C@H](NC(=O)CNC(=O)[C@H](CS)NC(=O)[C@H](CC(=O)O)NC(=O)CNC(=O)[C@H](CO)NC(=O)[C@@H](NC(=O)[C@@H]1CCCN1C(=O)[C@@H](NC(=O)[C@H](CS)NC(=O)[C@@H](NC(=O)[C@H](CO)NC(=O)[C@H](Cc1c[nH]c2ccccc12)NC(=O)[C@H](CCC(N)=O)NC(=O)[C@H](Cc1c[nH]c2ccccc12)NC(=O)[C@H](CCC(=O)O)NC(=O)CNC(=O)[C@H](CS)NC(=O)[C@H](CC(=O)O)NC(=O)[C@@H](N)CO)C(C)C)C(C)C)[C@@H](C)O)C(=O)NCC(=O)N[C@H](C(=O)N[C@@H](CCCNC(=N)N)C(=O)N[C@@H](CCC(=O)O)C(=O)NCC(=O)N[C@H](C(=O)N[C@@H](CCCNC(=N)N)C(=O)N[C@H](C(=O)O)[C@@H](C)O)[C@@H](C)O)[C@@H](C)O` [peptide 13-39] (H-SDCGEWQWSVCVPTSGDCGLGTREGTRT-OH; N-terminus and C-terminus assumed), in test [1], the “effect on angiogenesis when peptide used alone” value is on record as “No significant effect”. In addition, the “effect on angiogenesis induced by FGF-2” value in test [2] is on record as “no effect”. Besides, the “inhibition of the HARP activity (induction of cell proliferation)” value in test [4] is listed as 60%. The “effect on angiogenesis induced by HARP” value in test [3] is reported as “totally inhibit”.
Consider “KLTKPKPQAESKKKKKEGKKQEKMLD (listed as Homo sapiens) [peptide 111-136, C-terminal peptide fragment of HARP, amino acids 111-136, acts on the ALK receptor]”, for which the “reduction in the intra-tumoral vessels” value in test [5] stood at 55%. Also, the “mitogenic / angiogenic activity” value in test [6] is recorded as “neither mitogenic n or angiogenic”. For the same molecule, the “rate of tumour growth, times less than in untreated mice” value in test [7] (PC3 in nude mice) was determined as 4 times. In addition, in test [7] (day 27), the “mean size of the tumours smaller than in untreated mice” value was found to be 80%.
For “FGF-2: another angiogenic factor, used as control of the specificity of the inhibition”, in test [1], the “increase in the number of endothelial cells by comparison with Matrigel used by itself” value worked out at 5.8 times.

B1: HARP: angiogenic heparin binding growth factor, mature protein of 136 or 139 amino acids (protein, UniProt P21246 33-168, looked up)
Pleiotrophin: GKKEKPEKKVKKSDCGEWQWSVCVPTSGDCGLGTREGTRTGAECKQTMKTQRCKIPCNWKKQFGAECKYQFQAWGECDLNTALKTRTGSLKRALHNAECQKTVTISKPCGKLTKPKPQAESKKKKKEGKKQEKMLD
As a reminder, the Kd is the concentration at which binding is half-saturated. For the molecule B1, the “increase in the number of endothelial cells by comparison with Matrigel used by itself” value in test [1] amounted to 3 times. In addition, the Kd in test [8] is 50 pM.
